Values quoted from earlier work as cited in patent publication US20110130355A1, “USE OF SOPHORICOSIDE IN THE MANUFACTURE OF MEDICAMENTS” (priority 2008, published 2011).
Read-outs that look alike come from different tables or passages of the source.

Key:
[1] = test system: rabbit articular chondrocytes; conditions: cited from earlier work
ovariectomized rats = conditions: cited from earlier work
[2] = test system: femoral-metaphyseal tissues; conditions: in vitro, tissues from aging female rats; cited from earlier work

SMILES	degradation of proteoglycan induced by interleukin (IL) 1β ([1]; high concentration, 10 nmol/l)	degradation of proteoglycan induced by interleukin (IL) 1β ([1]; low concentration, 0.1 nmol/l)	loss of bone mass (ovariectomized rats)	contents of alkaline phosphatase, DNA and calcium in the femoral-metaphyseal tissues [2]
C[C@]12CC[C@@H]3c4ccc(O)cc4CC[C@H]3[C@@H]1CC[C@@H]2O [17β-estradiol]	increased its effect	inhibited the degradation of proteoglycan induced by interleukin (IL) 1β	–	–
O=c1c(-c2ccc(O)cc2)coc2cc(O[C@@H]3O[C@H](CO)[C@@H](O)[C@H](O)[C@H]3O)cc(O)c12 [genistin, genistein-7-O-glucopyranoside]	–	–	prevent loss of bone mass	substantially increases
O=c1c(-c2ccc(O)cc2)coc2cc(O)cc(O)c12 [genistein]	–	–	–	substantially increases
